The source of these data is paper PMC6044556 (ACS Omega, 2017).

One data set deals with mice. Nature of the data set: Behavior of the mice after injection. The format is in vivo, mice (Kunming). The note with it: intravenous injection, GABA 50 mg/kg or GABA–CPP 10 mg/kg, symptom with GABA–CPP appeared a bit worse.
Data set [1] can be described thus: GABA–CTP BBB penetration experiment: GABA in plasma of mice by LC–MS. Format: in vivo, mice (Kunming). Conditions: male mice, one bolus intravenous injection via tail vein (GABA 50 mg/kg, GABA–CPP 10 mg/kg).

With `NCCCC(=O)O` [GABA, γ-aminobutyric acid], in the data set with mice, the “behavior of the mice after injection” value is “quiet and sleepy behavior”. In data set [1], the “GABA concentration in plasma within 2 min after injection” value was determined as 7985 ng/mL and the “GABA concentration in plasma within 1 h after injection” value stood at 141 ng/mL.
